From patent publication US6914045B2, “Glycopeptide antibiotics” (Wyeth Holdings Corporation, priority 2001, dated 2005)
In brackets after ≈: the same amount, converted by molar mass.

Tests used:
Assay in all cases: in vitro antibacterial evaluation, MIC by broth dilution
Type in all cases: cell-based
[1] = test system: Enterococcus sp.; conditions: broth dilution, 18 hours at 35° C.
Outline: (§1)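 Read-out: the lowest concentration at which the test strain fails to grow. Serial dilutions (64-0.06 μg/mL) in Muller-Hinton II […], 5×10^5 CFU/mL inoculum, NCCLS M7-A2 procedure.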

[2] = test system: Streptococcus sp.; conditions: broth dilution, 18 hours at 35° C.
Outline: as §1

[3] = test system: Staphylococcus sp.; conditions: broth dilution, 18 hours at 35° C.
Outline: as §1

[4] = test system: Escherichia coli; conditions: 18 hours at 35° C.
Outline: as §1

CC(c1ccccc1)C1NC(=O)CNC(=O)C(CO)NC(=O)C(C(O)C2CNC(=N)N2C2OC(CO)C(O)C(O)C2O)NC(=O)C(C(O)C2CNC(=N)N2)NC(=O)C(Cc2ccc(OC3OC(CO)C(OC4OC5COC(CCc6ccccc6)OC5C(O)C4O)C(O)C3O)cc2)NC1=O (stereo not shown) [Example 124]
MIC Enterococcus avium (GC 4558) ([1]; Enterococcus avium (GC 4558)): 0.25 µg/mL (≈ 0.177 µM) | MIC Enterococcus faecalis (ATCC 29212) ([1]; Enterococcus faecalis (ATCC 29212)): 4 µg/mL (≈ 2.83 µM) | MIC Enterococcus faecalis (GC 2242) ([1]; Enterococcus faecalis (GC 2242)): 4 µg/mL (≈ 2.83 µM) | MIC Enterococcus faecalis (GC 2691) ([1]; Enterococcus faecalis (GC 2691)): 4 µg/mL (≈ 2.83 µM) | MIC Enterococcus faecalis (GC 3059) ([1]; Enterococcus faecalis (GC 3059)): 4 µg/mL (≈ 2.83 µM) | MIC Enterococcus faecalis (GC 4552) ([1]; Enterococcus faecalis (GC 4552)): 4 µg/mL (≈ 2.83 µM) | MIC Enterococcus faecalis (GC 4553) ([1]; Enterococcus faecalis (GC 4553)): 4 µg/mL (≈ 2.83 µM) | MIC Enterococcus faecalis (GC 4554) ([1]; Enterococcus faecalis (GC 4554)): 4 µg/mL (≈ 2.83 µM) | MIC Enterococcus faecalis (GC 6189) ([1]; Enterococcus faecalis (GC 6189)): 4 µg/mL (≈ 2.83 µM) | MIC Enterococcus faecium (GC 2243) ([1]; Enterococcus faecium (GC 2243)): 4 µg/mL (≈ 2.83 µM) | MIC Enterococcus faecium (GC 4556) ([1]; Enterococcus faecium (GC 4556)): 4 µg/mL (≈ 2.83 µM) | MIC Enterococcus faecium (GC 4557) ([1]; Enterococcus faecium (GC 4557)): 1 µg/mL (≈ 0.708 µM) | MIC Enterococcus faecalis (ATCC 29212) ([1]; strain ATCC 29212): 4 µg/mL (≈ 2.83 µM) | MIC Enterococcus faecalis (GC 2242) ([1]; strain GC 2242): 4 µg/mL (≈ 2.83 µM) | MIC Enterococcus faecium (GC 2243) ([1]; strain GC 2243): 4 µg/mL (≈ 2.83 µM) | MIC Enterococcus faecalis (GC 2691) ([1]; strain GC 2691): 4 µg/mL (≈ 2.83 µM) | MIC Enterococcus faecalis (GC 3059) ([1]; strain GC 3059): 4 µg/mL (≈ 2.83 µM) | MIC Enterococcus faecalis (GC 4552) ([1]; strain GC 4552): 4 µg/mL (≈ 2.83 µM) | MIC Enterococcus faecalis (GC 4553) ([1]; strain GC 4553): 4 µg/mL (≈ 2.83 µM) | MIC Enterococcus faecalis (GC 4554) ([1]; strain GC 4554): 4 µg/mL (≈ 2.83 µM) | MIC Enterococcus faecium (GC 4556) ([1]; strain GC 4556): 4 µg/mL (≈ 2.83 µM) | MIC Enterococcus faecium (GC 4557) ([1]; strain GC 4557): 1 µg/mL (≈ 0.708 µM) | MIC Enterococcus avium (GC 4558) ([1]; strain GC 4558): 0.25 µg/mL (≈ 0.177 µM) | MIC Enterococcus faecalis (GC 6189) ([1]; strain GC 6189): 4 µg/mL (≈ 2.83 µM) | MIC Streptococcus agalactiae (GC 4564) ([2]; Streptococcus agalactiae (GC 4564)): 1 µg/mL (≈ 0.708 µM) | MIC Streptococcus pneumoniae (ATCC 6301) ([2]; Streptococcus pneumoniae (ATCC 6301)): <0.06 µg/mL | MIC Streptococcus pneumoniae (GC 1894) ([2]; Streptococcus pneumoniae (GC 1894)): <0.06 µg/mL | MIC Streptococcus pneumoniae (GC 4565) ([2]; Streptococcus pneumoniae (GC 4565)): <0.06 µg/mL | MIC Streptococcus pyogenes (GC 4563) ([2]; Streptococcus pyogenes (GC 4563)): 0.12 µg/mL (≈ 0.085 µM) | MIC Streptococcus pneumoniae (ATCC 6301) ([2]; strain ATCC 6301): <0.06 µg/mL | MIC Streptococcus pneumoniae (GC 1894) ([2]; strain GC 1894): <0.06 µg/mL | MIC Streptococcus pyogenes (GC 4563) ([2]; strain GC 4563): 0.12 µg/mL (≈ 0.085 µM) | MIC Streptococcus agalactiae (GC 4564) ([2]; strain GC 4564): 1 µg/mL (≈ 0.708 µM) | MIC Streptococcus pneumoniae (GC 4565) ([2]; strain GC 4565): <0.06 µg/mL | MIC Staphylococcus aureus (ATCC 29213) [3]: 2 µg/mL (≈ 1.42 µM) | MIC Staphylococcus aureus (GC 1131) [3]: 2 µg/mL (≈ 1.42 µM) | MIC Staphylococcus aureus (GC 3051) [3]: 2 µg/mL (≈ 1.42 µM) | MIC Staphylococcus aureus (GC 3053) [3]: 2 µg/mL (≈ 1.42 µM) | MIC Staphylococcus aureus (GC 4541) [3]: 2 µg/mL (≈ 1.42 µM) | MIC Staphylococcus aureus (GC 4542) [3]: 1 µg/mL (≈ 0.708 µM) | MIC Staphylococcus aureus (GC 4544) [3]: 2 µg/mL (≈ 1.42 µM) | MIC Staphylococcus aureus (GC 4545) [3]: 2 µg/mL (≈ 1.42 µM) | MIC Staphylococcus aureus (GC 1131) ([3]; inoculum 5×10^5 CFU/mL, strain GC 1131): 2 µg/mL (≈ 1.42 µM) | MIC Staphylococcus aureus (ATCC 29213) ([3]; strain ATCC 29213): 2 µg/mL (≈ 1.42 µM) | MIC Staphylococcus aureus (GC 3051) ([3]; strain GC 3051): 2 µg/mL (≈ 1.42 µM) | MIC Staphylococcus aureus (GC 3053) ([3]; strain GC 3053): 2 µg/mL (≈ 1.42 µM) | MIC Staphylococcus aureus (GC 4541) ([3]; strain GC 4541): 2 µg/mL (≈ 1.42 µM) | MIC Staphylococcus aureus (GC 4542) ([3]; strain GC 4542): 1 µg/mL (≈ 0.708 µM) | MIC Staphylococcus aureus-SMITH (GC 4543) ([3]; strain GC 4543): 2 µg/mL (≈ 1.42 µM) | MIC Staphylococcus aureus (GC 4544) ([3]; strain GC 4544): 2 µg/mL (≈ 1.42 µM) | MIC Staphylococcus aureus (GC 4545) ([3]; strain GC 4545): 2 µg/mL (≈ 1.42 µM) | MIC Staphylococcus haemolyticus (GC 4546) ([3]; strain GC 4546): 2 µg/mL (≈ 1.42 µM) | MIC Coagulase Negative Staphylococcus (GC 4547) ([3]; strain GC 4547): 2 µg/mL (≈ 1.42 µM) | MIC Coagulase Negative Staphylococcus (GC 4548) ([3]; strain GC 4548): 1 µg/mL (≈ 0.708 µM) | MIC Coagulase Negative Staphylococcus (GC 4549) ([3]; strain GC 4549): 1 µg/mL (≈ 0.708 µM) | MIC Coagulase Negative Staphylococcus (GC 4551) ([3]; strain GC 4551): 2 µg/mL (≈ 1.42 µM) | MIC Coagulase Negative Staphylococcus (GC 6257) ([3]; strain GC 6257): 1 µg/mL (≈ 0.708 µM) | MIC Staphylococcus aureus-SMITH (GC 4543) ([3]; strain SMITH GC 4543): 2 µg/mL (≈ 1.42 µM) | MIC Escherichia coli (ATCC 25922) ([4]; strain ATCC 25922): 32 µg/mL (≈ 22.7 µM) | MIC Escherichia coli (GC 4559) ([4]; strain GC 4559): 32 µg/mL (≈ 22.7 µM) | MIC Escherichia coli (GC 4560) ([4]; strain GC 4560): 1 µg/mL (≈ 0.708 µM)
